Reference: PMC12195707, “Evaluation of Antitumoral Activity in a 3D Cell Model of a Src Inhibitor Prodrug for Glioblastoma Treatment” (Pharmaceutics, 2025)

Experiments:
[1] = PAMPA assay, blood-brain barrier (BBB) membrane
Method: (§1) After being first dissolved in DMSO, the compounds were diluted 1:1 v/v using phosphate buffer (PBS 10 mM, pH 7.4). […] The gastrointestinal (GI) and blood–brain barrier (BBB) phospholipidic bilayers were mimicked by covering each well of the filter plate with either a 10%w/v CHCl3/dodecane brain polar lipid solution or a 1%w/v L-α-phosphatidylcholine solution (PC) in dodecane. After placing a DMSO/PBS 1:1v/v combination solution in the acceptor plate, the sandwich was gently shaken and incubated at room temperature for four hours. Samples were collected from the upper and bottom plates at the end time point, and the LC-UV/MS method was used for analysis. As previously reported, the apparent permeability (Papp cm/s × 10^−6) was quantified.

[2] = PAMPA assay, gastrointestinal (GI) membrane; assay type: in vitro ADME; conditions: four hours
Method: as §1

[3] = tested on: orthotopic GBM model; parameters: method as in PMID 28650650; conditions: compared with SI306; cited from earlier work

Row | SMILES | Apparent permeability Papp ([1]; BBB PAMPA, room temperature, four hours) [cm/s × 10^−6] | Membrane retention MR ([1]; PAMPA, 4 h, pH 7.4) [%] | Papp at 4 h ([2]; pH 7.4, room temperature, read-out: Apparent permeability Papp) [×10⁻⁶ cm/s] | Membrane retention MR ([2]; room temperature) [%] | Efficacy in orthotopic GBM model [3]
1 | CC(C)NCC(O)COc1cccc2ccccc12 (centres unmarked) [Propranolol, propranolol, reference compound] | 17.16 ± 0.31 | 10.73 ± 1.33 | 19.2 ± 0.37 | 8.89 ± 1.12 | 
2 | CN1CCN(CCOC(=O)N(c2cccc(Br)c2)c2nc(SCCN3CCOCC3)nc3c2cnn3CC(Cl)c2ccccc2)CC1 (centres unmarked) [SI306-PD1] |  |  |  |  | greater efficacy than SI306
